Measured values: patent US11999718B2, “Pyrazole derivatives” (Aptabio Therapeutics Inc., priority 2021, dated 2024)

Legend:
[1] = tested on: HL-60 cells differentiated into neutrophil cells; experiment: ROS production induced by PMA in HL-60 cells differentiated into neutrophil cells; type: cell-based; conditions: Homo sapiens, 0.5 h; differentiated HL-60 cells, compounds 0.5 uM (0.5 mM in the source) for 30 minutes, 200 nM PMA, L-012 luminescence
Description: In order to confirm the effect of the compounds of Synthetic examples on ROS production from fibroblasts and specific substrate cells, ROS production was induced by stimulation of PMA (phorbol 12-myristate 13-acetate), TGF-β1, palmitate or high concentration-glucose, or the like, in HL-60 cells differentiated into neutrophil cells by DMSO treatment, NHLF (normal human lung fibroblast, Lonza), LX-2 (human hepatic stellate cells, Sigma), ARPE19 (human retinal pigment epithelial cell, ATCC), and KEL-FIB (Keloid fibroblast, ATCC) cells, and under this condition, the inhibitory effect of ROS production of the compounds of Synthetic Examples was observed.
HL-60 cells (human leukemia cells, ATCC) were suspended in a medium containing 1.25% DMSO (RPMI+10% FBS) and cultured under the condition of 5% CO2, 37° C. for 6 days, thereby inducing differentiation into neutrophil cells. […] Then, to each well comprising the cells and drug, 200 nM PMA was treated to induce ROS production, and such ROS production was measured by observing the luminescence level of each well using 100 μM L-012.

HFF-1 cells = experiment: Collagen gel contraction induced by TGF-β1 in HFF-1 cells; type: cell-based, human; conditions: HFF-1 cells in collagen gel, TGF-β1 10 ng/ml, 72 hours, FIG. 7
Description: In order to confirm the effect of the compounds of Synthetic examples on differentiation of fibroblasts into myofibroblasts, the inhibitory effect of the compounds of Synthetic examples on the phenomenon of contraction of gel induced by interaction of human foreskin fibroblasts (HFF-1, ATCC) and collagen was observed.
The mixed solution of the HFF-1 cells and collagen (bovine type I collagen) prepared at a concentration of 3×10^6 cells/ml was aliquoted in a 24 well plate, respectively, and then cultured under the condition of 5% CO2, 37° C. for 1 hour to induce gel polymerization. Then, after suspending the gel attached on the plate from the plate using a spoon, a medium comprising TGF-β1 and Synthetic example compounds was added to each well. After culturing for 72 hours, the Synthetic example compounds were treated by 10, 20, 30, 40, 60 and 80 μM to measure the size of the gel, and thereby, the degree of contraction of the gel by drug treatment was confirmed.

IL-6 = experiment: Expression of IL-6 in pancreatic cancer associated fibroblasts (ELISA); type: cell-based, human; conditions: P.CAF cells, 48 hours treatment, FIG. 5
Protocol: (§1) In order to confirm the effect of the compounds of Synthetic examples of the present invention on inflammation reaction in cancer associated fibroblasts, whether the expression of IL6 and IL8 was inhibited by the compounds of Synthetic examples in pancreatic cancer associated fibroblasts (P.CAF) was observed.
(§2) After inoculating 1.5×10^5 cells in a 6 well plate and then culturing in P.CAF complete media for 48 hours, the compounds of Synthetic examples were treated by 10, 20, 30, 40, 60 and 80 μM for 48 hours according to each condition, and then the expression of IL-6 and IL-8 was confirmed by performing ELISA with Quantkine ELISA kit (R&D systems) as follows.
(§3) 100 μl of the culture solution in which the compounds of Synthetic examples were treated for 48 hours was added to the microplate strip for analysis including a 100 μl assay diluent and left at a room temperature for 2 hours and then the contents were removed, and then it was washed with 400 μl wash buffer 4 times. 200 μl of a human IL-6 or IL-8 conjugate was added and left at a room temperature for 2 hours and then the contents were removed, and then it was washed with 400 μl wash buffer 4 times. 200 μl of substrate solution was added and left at a room temperature for 20 minutes and then 50 μl of stop solution was added, and the absorbance at a wavelength of 450 nm was measured within 30 minutes to confirm the expression level of IL-6 and IL-8.

IL-8 = experiment: Expression of IL-8 in pancreatic cancer associated fibroblasts (ELISA); type: cell-based, human; conditions: P.CAF cells, 48 hours treatment, FIG. 6
Protocol: as §1, §2, §3

SMILES | inhibition at 0.5 µM [1] [%] | also measured
COc1cccc(CN(C)C2CCc3nn(-c4ccccn4)c(O)c3C2)c1 (stereo not drawn) [Compound 13, 5-[(3-Methoxybenzyl)methylamino]-2-(pyridin-2-yl)-4,5,6,7-tetrahydro-2H-indazol-3-ol] | > 70 | contraction of the gel induced by TGF-β1 (HFF-1 cells): effectively inhibited
CN(Cc1cccc(S(C)(=O)=O)c1)C1CCc2nn(-c3ccccn3)c(O)c2C1 (stereo not drawn) [Compound 23, 5-[Methyl(3-methylsulfonylbenzyl)amino]-2-(pyridin-2-yl)-4,5,6,7-tetrahydro-2H-indazol-3-ol] | 50 to 70 | contraction of the gel induced by TGF-β1 (HFF-1 cells): effectively inhibited; IL-6 expressed in P.CAF (IL-6): effectively inhibited; IL-8 expressed in P.CAF (IL-8): effectively inhibited
CN(Cc1ccc2ncccc2c1)C1CCc2nn(-c3ccccn3)c(O)c2C1 (stereo not drawn) [Compound 63, 5-[Methyl(quinolin-6-ylmethyl)amino]-2-(pyridin-2-yl)-4,5,6,7-tetrahydro-2H-indazol-3-ol] | > 70 | contraction of the gel induced by TGF-β1 (HFF-1 cells): effectively inhibited; IL-6 expressed in P.CAF (IL-6): effectively inhibited; IL-8 expressed in P.CAF (IL-8): effectively inhibited
Oc1c2c(nn1-c1ccccn1)CCC(N1CCCCC1)C2 (stereo not drawn) [Compound 14, 5-Piperidin-1-yl-2-(pyridin-2-yl)-4,5,6,7-tetrahydro-2H-indazol-3-ol] | 50 to 70 | contraction of the gel induced by TGF-β1 (HFF-1 cells): effectively inhibited
CN1CCN(C2CCc3nn(-c4nccc5sccc45)c(O)c3C2)CC1 (stereo not drawn) [Compound 85, 5-(4-Methylpiperazin-1-yl)-2-(thieno[3,2-c]pyridin-4-yl)-4,5,6,7-tetrahydro-2H-indazol-3-ol] | 50 to 70 | –
Oc1c2c(nn1-c1ccccn1)CCC(N1CCc3ccccc3C1)C2 (stereo not drawn) [Compound 18, 5-(3,4-Dihydro-1H-isoquinolin-2-yl)-2-(pyridin-2-yl)-4,5,6,7-tetrahydro-2H-indazol-3-ol] | > 70 | –
Oc1c2c(nn1-c1ccccn1)CCC(Nc1ccccc1)C2 (stereo not drawn) [Compound 92, 5-(Phenylamino)-2-(pyridin-2-yl)-4,5,6,7-tetrahydro-2H-indazol-3-ol] | 30 to 50 | –
CCCN(Cc1ccccc1)C1CCc2nn(-c3ccccn3)c(O)c2C1 (stereo not drawn) [Compound 21, 5-(Benzylpropylamino)-2-(pyridin-2-yl)-4,5,6,7-tetrahydro-2H-indazol-3-ol] | 30 to 50 | –
CN1CCN(C2CCc3nn(-c4ccc(C(F)(F)F)cc4)c(O)c3C2)CC1 (stereo not drawn) [Compound 95, 5-(4-Methylpiperazin-1-yl)-2-(4-(trifluoromethyl)phenyl)-4,5,6,7-tetrahydro-2H-indazol-3-ol] | 50 to 70 | –
Cc1ccccc1CN(C)C1CCc2nn(-c3ccccn3)c(O)c2C1 (stereo not drawn) [Compound 29, 5-[Methyl-(2-methylbenzyl)amino]-2-(pyridin-2-yl)-4,5,6,7-tetrahydro-2H-indazol-3-ol] | 30 to 50 | –
CN(Cc1ccc(Cl)cc1)C1CCc2nn(-c3ccccn3)c(O)c2C1 (stereo not drawn) [Compound 19, 5-[(4-Chlorobenzyl)methylamino]-2-(pyridin-2-yl)-4,5,6,7-tetrahydro-2H-indazol-3-ol] | > 70 | –
Cc1cc(C(F)(F)F)cc(-n2nc3c(c2O)CC(N2CCN(C)CC2)CC3)n1 (stereo not drawn) [Compound 84, 2-(6-Methyl-4-(trifluoromethyl)pyridin-2-yl)-5-(4-methylpiperazin-1-yl)-4,5,6,7-tetrahydro-2H-indazol-3-ol] | 50 to 70 | –
CN(Cc1ccc(C(F)(F)F)cc1)C1CCc2nn(-c3ccccn3)c(O)c2C1 (stereo not drawn) [Compound 8, 5-[Methyl-(4-trifluoromethylbenzyl)amino]-2-pyridin-2-yl-4,5,6,7-tetrahydro-2H-indazol-3-ol] | < 30 | –
CN(C)C/C=C/C(=O)N(C)C1CCc2nn(-c3ccccn3)c(O)c2C1 (stereo not drawn) [Compound 99, (E)-4-(dimethylamino)-N-(3-hydroxy-2-(pyridin-2-yl)-4,5,6,7-tetrahydro-2H-indazol-5-yl)-N-methylbut-2-enamide] | 50 to 70 | –
CS(=O)(=O)c1ccc(N2CCN(C3CCc4nn(-c5ccccn5)c(O)c4C3)CC2)cc1 (stereo not drawn) [Compound 131, 5-(4-(4-(Methylsulfonyl)phenyl)piperazin-1-yl)-2-(pyridin-2-yl)-4,5,6,7-tetrahydro-2H-indazol-3-ol] | > 70 | –
COc1ccc(N2CCN(C3CCc4nn(-c5ccccn5)c(O)c4C3)CC2)cc1 (stereo not drawn) [Compound 129, 5-(4-(4-Methoxyphenyl)piperazin-1-yl)-2-(pyridin-2-yl)-4,5,6,7-tetrahydro-2H-indazol-3-ol] | > 70 | –
CN(C)c1ccccc1CN(C)C1CCc2nn(-c3ccccn3)c(O)c2C1 (stereo not drawn) [Compound 71, 5-[(2-Dimethylamino)benzylmethylamino]-2-(pyridin-2-yl)-4,5,6,7-tetrahydro-2H-indazol-3-ol] | 50 to 70 | –
COc1ccc(CNC2CCc3nn(-c4ccccn4)c(O)c3C2)cc1 (stereo not drawn) [Compound 88, 5-((4-Methoxybenzyl)amino)-2-(pyridin-2-yl)-4,5,6,7-tetrahydro-2H-indazol-3-ol] | 50 to 70 | –
CN1CCN(C2CCc3nn(-c4ccc(Cl)cc4)c(O)c3C2)CC1 (stereo not drawn) [Compound 94, 2-(4-Chlorophenyl)-5-(4-methylpiperazin-1-yl)-4,5,6,7-tetrahydro-2H-indazol-3-ol] | > 70 | –
CCCCN(Cc1ccccc1)C1CCc2nn(-c3ccccn3)c(O)c2C1 (stereo not drawn) [Compound 22, 5-(Benzylbutylamino)-2-(pyridin-2-yl)-4,5,6,7-tetrahydro-2H-indazol-3-ol] | < 30 | –
CN(Cc1ccc(F)cc1)C1CCc2nn(-c3ccccn3)c(O)c2C1 (stereo not drawn) [Compound 4, 5-[(4-Fluorobenzyl)methylamino]-2-(pyridin-2-yl)-4,5,6,7-tetrahydro-2H-indazol-3-ol] | > 70 | –
CN(C)C/C=C/C(=O)N1CCN(C2CCc3nn(-c4ccccn4)c(O)c3C2)CC1 (stereo not drawn) [Compound 98, (E)-4-(dimethylamino)-1-(4-(3-hydroxy-2-(pyridin-2-yl)-4,5,6,7-tetrahydro-2H-indazol-5-yl)piperazin-1-yl)but-2-en-1-one] | 50 to 70 | –
C=CC(=O)N1CCN(C2CCc3nn(-c4ccccn4)c(O)c3C2)CC1 (stereo not drawn) [Compound 97, 1-(4-(3-Hydroxy-2-(pyridin-2-yl)-4,5,6,7-tetrahydro-2H-indazol-5-yl)piperazin-1-yl)prop-2-en-1-one] | 50 to 70 | –
CN(Cc1ccccc1C(F)(F)F)C1CCc2nn(-c3ccccn3)c(O)c2C1 (stereo not drawn) [Compound 11, 5-[Methyl-(2-trifluoromethylbenzyl)-amino]-2-pyridin-2-yl-4,5,6,7-tetrahydro-2H-indazol-3-ol] | < 30 | –
CN(Cc1ccc(C#N)cc1)C1CCc2nn(-c3ccccn3)c(O)c2C1 (stereo not drawn) [Compound 3, 4-{[(3-Hydroxy-2-(pyridin-2-yl)-4,5,6,7-tetrahydro-2H-indazol-5-yl)methylamino]methyl}benzonitrile] | > 70 | –
Oc1c2c(nn1-c1ccccn1)CCC(N1CCN(CCc3ccccc3)CC1)C2 (stereo not drawn) [Compound 104, 5-(4-Penethylpiperazin-1-yl)-2-(pyridin-2-yl)-4,5,6,7-tetrahydro-2H-indazol-3-ol] | 50 to 70 | –
CN1CCN(C2CCc3nn(-c4cccc(Cl)n4)c(O)c3C2)CC1 (stereo not drawn) [Compound 83, 2-(6-Chloropyridin-2-yl)-5-(4-methylpiperazin-1-yl)-4,5,6,7-tetrahydro-2H-indazol-3-ol] | > 70 | –
COc1ccccc1CN(C)C1CCc2nn(-c3ccccn3)c(O)c2C1 (stereo not drawn) [Compound 26, 5-[(2-Methoxybenzyl)-methylamino]-2-(pyridin-2-yl)-4,5,6,7-tetrahydro-2H-indazol-3-ol] | < 30 | –
